Results published in patent US7998940B2, “Aptamers to von Willebrand factor and their use as thrombotic disease therapeutics” (Archemix Corp., priority 2004, dated 2011).
Where two headings read alike, the source gives them in different places. Oligonucleotides are written 5' to 3', each unit as a sugar letter and its base; * is a phosphorothioate linkage, no mark a phosphodiester; rarer units and linkages stand in square brackets, end groups in braces. Plain capitals give the bases only. [PEG] = polyethylene glycol spacer within the chain; [invdT] = inverted (3'-3') thymidine; d = 2'-deoxy (DNA); m = 2'-O-methyl; r = 2'-OH (RNA); f = 2'-fluoro

How the values were obtained:
[1] = system: full length human vWF (SEQ ID NO 7); assay: dot blot KD determination and extent of binding, full length human vWF; conditions: for % binding @ 100 nM vWF: extent of aptamer binding at 100 nM full length human vWF; for Kd: full length human vWF, read-out: KD;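 on all read-outs here: dot blot binding of aptamers to full length human vWF across a protein titration, incubated 30 minutes at room temperature in 1x DPBS with BSA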
Procedure: Based on this initial screen, KDs were determined for 3 of the vWF dependent binding sequences using the dot blot assay. […] A 12 point protein titration was used in the dot blot assay (300 nM, 100 nM, 30 nM, 10 nM, 3 nM, 1 nM, 300 pM, 100 pM, 30 pM, 10 pM, 3 pM, 0 pM) in 1×DPBS plus 0.1 mg/mL BSA at room temperature for 30 minutes.
An 8 point protein titration was used in the dot blot binding assay (100n M, 30 nM, 10 nM, 3 nM, 1 nM, 300 pM, 100 pM, 0 pM)) in 1× Dulbecco's PBS containing 0.1 BSA (final volume of 50 uL) for 30 minutes at room temperature.

[2] = system: rabbit vWF A1 domain (SEQ ID NO 6); assay: 3-point dot blot screen, rabbit vWF A1 domain; assay type: binding; conditions: 100 nM rabbit vWF A1 domain, ratio of fraction bound with target to without
Excerpt: (§1) When a significant positive ratio of binding of RNA in the presence of human or rabbit vWF A1 domain versus in the absence of protein was seen, the pools were cloned using the TOPO TA cloning kit (Invitrogen, Cat. #45-0641, Carlsbad, Calif.) according to the manufacturer's instructions. Round 9 and 12 pool templates were cloned and sequenced (125 total sequences), producing 48 unique clones. All unique clones were transcribed, desalted, 5-^32P end-labeled, and assayed in a 3-point dot blot screen (no protein target control, 100 nM human vWF A1 domain (SEQ ID NO 5, FIG. 3), or 100 nM rabbit vWF A1 domain (SEQ ID NO 6, FIG. 3). The data is presented in the third and fourth columns of Table 4 below as the ratio of the fraction of the aptamer bound to the nitrocellulose in the presence of the target protein to the fraction of aptamer bound in the absence of the target protein.
(§2) When a significant positive ratio of binding of RNA in the presence of human or rabbit vWF A1 domain (SEQ ID NOS 4 and 6, respectively) versus in the absence of protein was seen, the pools were cloned using the TOPO TA cloning kit (Invitrogen Cat. #45-0641, Carlsbad, Calif.) according to the manufacturer's instructions. Round 9 and 12 pool templates were cloned and sequenced (185 total sequences), producing 78 unique clones within 3 sequence families. All unique clones were transcribed, desalted, 5-^32P end-labeled, and assayed in a 3-point dot blot screen (no protein target control, 100 nM human vWF A1 domain (SEQ ID NO 5), or 100 nM rabbit vWF A1 domain (SEQ ID NO 6). The data are presented in the third and fourth columns of Table 9 below as the ratio of the fraction of the aptamer bound to the nitrocellulose in the presence of the target protein to the fraction of aptamer bound in the absence of the target protein. Of the three sequence families, members of Family #1 and #2 and two individual, non-family aptamers, bound to both human vWF domain A1 (SEQ ID NO 5) and rabbit vWF domain A1 (SEQ ID NO 6).
(§3) All unique clones were assayed in a 3-point dot blot screen (no protein target control, 100 nM human vWF A1 domain (SEQ ID NO 5), or 100 nM rabbit vWF A1 domain (SEQ ID NO 6). The data are presented in the third and fourth columns of Table 14 below as the ratio of the fraction of the aptamer bound to the nitrocellulose in the presence of the target protein to the fraction of aptamer bound in the absence of the target protein.
When a significant positive ratio of binding of DNA in the presence of human or rabbit vWF A1 domain versus in the absence of protein was seen, the pools were cloned using the TOPO TA cloning kit (Invitrogen Cat. #45-0641, Carlsbad, Calif.) according to the manufacturer's instructions. Round 7 and 11 pool templates were cloned and sequenced (218 total sequences), producing 146 unique clones within 12 sequence families of which sequences from six families show vWF target binding activity. All unique clones were assayed twice in a 3-point dot blot screen (no protein target control, 20 nM full length human vWF (Calbiochem Cat. #681300, La Jolla, Calif.), or 20 nM rabbit vWF A1 domain. The data is presented in the third and fourth columns of Table 17 below as the ratio of the fraction of the aptamer bound to the nitrocellulose in the presence of the target protein to the fraction of aptamer bound in the absence of the target protein.

[3] = target: human vWF A1 domain (SEQ ID NO 5) (Homo sapiens, UniProt P04275, T1381A); assay: 3-point dot blot screen, human vWF A1 domain; assay type: binding; conditions: 100 nM human vWF A1 domain
Excerpt: as §1, §2, §3

[4] = rRfY aptamers, ratio of fraction bound with target to fraction bound without target

Sequence of rabbit vWF A1 domain (SEQ ID NO 6) (as listed by the source): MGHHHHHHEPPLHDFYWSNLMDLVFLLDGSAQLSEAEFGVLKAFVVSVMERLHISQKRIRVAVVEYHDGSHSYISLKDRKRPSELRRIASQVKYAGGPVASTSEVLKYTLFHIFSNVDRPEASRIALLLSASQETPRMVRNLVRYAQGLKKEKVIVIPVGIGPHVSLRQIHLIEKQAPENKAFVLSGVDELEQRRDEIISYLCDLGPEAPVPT
Sequence of human vWF A1 domain (SEQ ID NO 5) (P04275 with tags, fused parts or gaps T1381A): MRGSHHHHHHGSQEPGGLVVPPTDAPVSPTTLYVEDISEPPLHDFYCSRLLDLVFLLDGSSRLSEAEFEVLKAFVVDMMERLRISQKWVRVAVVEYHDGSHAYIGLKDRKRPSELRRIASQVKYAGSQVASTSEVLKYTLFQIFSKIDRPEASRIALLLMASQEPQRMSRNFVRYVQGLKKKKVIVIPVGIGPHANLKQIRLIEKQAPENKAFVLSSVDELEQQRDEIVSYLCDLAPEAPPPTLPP

| Molecule | % binding @ 100 nM vWF ([1]; Phase 2 modification) [%] | Kd ([1]; Phase 2 modification) [nM] | Screen- Rabbit/No Protein ([2]; rRfY aptamers) | Screen- Human/No Protein [3, 4] | other results |
| --- | --- | --- | --- | --- | --- |
| mGmCmGmUdGdCdAmGmUmGmCmCPEGmGmGmCdCmG-s-TmGdCdGdGTmGmCdCmUdCdCmGmUdCmAmCmGmC-3T (mGmCmGmUdGdCdAmGmUmGmCmC[PEG]mGmGmCdCmG*dTmGdCdGdGdTmGmCdCmUdCdCmGmUdCmAmCmGmC[invdT]) [ARC1527] |  |  |  |  | % binding @ 100 nM vWF ([1]; Phase 4 and 5 modification): 14.1%; Kd ([1]; Phase 4 and 5 modification): 3.4 nM |
| mGmCmGmUdGdCdAmGmUmGmCmCPEGmGmGmCdCmG-s-TmGdCdGdGTmGmCdCmUdCdCmGmUmCmAmCmGmC-3T (mGmCmGmUdGdCdAmGmUmGmCmC[PEG]mGmGmCdCmG*dTmGdCdGdGdTmGmCdCmUdCdCmGmUmCmAmCmGmC[invdT]; aptamer) [ARC1528] |  |  |  |  | % binding @ 100 nM vWF ([1]; Phase 4 and 5 modification): 10.2%; Kd ([1]; Phase 4 and 5 modification): 4.2 nM |
| mGmCmGmUdGdCdAmGmUmGmCmCmUmUmCmGmGmCdCmG-s-TmGdCdGdGTmGmCdCmUdCdCmGmUmCmAmCmGmC-3T (mGmCmGmUdGdCdAmGmUmGmCmCmUmUmCmGmGmCdCmG*dTmGdCdGdGdTmGmCdCmUdCdCmGmUmCmAmCmGmC[invdT]) [ARC1524] |  |  |  |  | % binding @ 100 nM vWF ([1]; Phase 4 and 5 modification): 26.5%; Kd ([1]; Phase 4 and 5 modification): 5.7 nM |
| mGmCmGmUdGdCdAmGmUmGmCmCmUmUmUmGmGmCdCmG-s-TmGdCdGdGTmGmCdCmUdCdCmGmUmCmAmCmGmC-3T (mGmCmGmUdGdCdAmGmUmGmCmCmUmUmUmGmGmCdCmG*dTmGdCdGdGdTmGmCdCmUdCdCmGmUmCmAmCmGmC[invdT]) [ARC1526] |  |  |  |  | % binding @ 100 nM vWF ([1]; Phase 4 and 5 modification): 29.0%; Kd ([1]; Phase 4 and 5 modification): 4.7 nM |
| mGmGmCmGmU-s-dG-s-dC-s-dAmGmUmGmCmCmUmUmCmGmGmC-s-dCmG-s-TmG-s-dC-s-dG-s-dG-s-TmGmC-s-dCmU-s-dC-s-dCmGmUmCmAmCmGmCmC-3T (mGmGmCmGmU*dG*dC*dAmGmUmGmCmCmUmUmCmGmGmC*dCmG*dTmG*dC*dG*dG*dTmGmC*dCmU*dC*dCmGmUmCmAmCmGmCmC[invdT]) [ARC1345] | 29 | 12.1 |  |  |  |
| mGmGmCmGmUdG-s-dC-s-dAmGmUmGmCmCmUmUmCmGmGmC-s-dCmGTmGdC-s-dG-s-dGTmGmCdCmUdC-s-dCmGmUmCmAmCmGmCmC-3T (mGmGmCmGmUdG*dC*dAmGmUmGmCmCmUmUmCmGmGmC*dCmGdTmGdC*dG*dGdTmGmCdCmUdC*dCmGmUmCmAmCmGmCmC[invdT]) [ARC1344] | 17 | 4.8 |  |  |  |
| mGmGmCmGmUdG-s-dCdAmGmUmGmCmCmUmUmCmGmGmC-s-dCmGTmGdCdG-s-dGTmGmCdCmUdC-s-dCmGmUmCmAmCmGmCmC-3T (mGmGmCmGmUdG*dCdAmGmUmGmCmCmUmUmCmGmGmC*dCmGdTmGdCdG*dGdTmGmCdCmUdC*dCmGmUmCmAmCmGmCmC[invdT]) [ARC1343] | 21 | 23.9 |  |  |  |
| mGmGmCmGmUdGdCdAdGTdGdCdCTTdCdGdGdCdCdGTdGdCdGdGTdGdCdCTdCdCdGTdCmAmCmGmCmC-3T (mGmGmCmGmUdGdCdAdGdTdGdCdCdTdTdCdGdGdCdCdGdTdGdCdGdGdTdGdCdCdTdCdCdGdTdCmAmCmGmCmC[invdT]; aptamer) [ARC1338] | 21 | 7.4 |  |  |  |
| mGmGmCmGmUdGdCdAmGmUmGmCmCmUmUmCmGmGmCdCdGTdGdCdGdGTdGdCdCTdCdCdGTdCmAmCmGmCmC-3T (mGmGmCmGmUdGdCdAmGmUmGmCmCmUmUmCmGmGmCdCdGdTdGdCdGdGdTdGdCdCdTdCdCdGdTdCmAmCmGmCmC[invdT]; aptamer) [ARC1341] | 26 | 22.5 |  |  |  |
| mGmGmCmGmUdGdCdAmGmUmGmCmCmUmUmCmGmGmCdCmGTmGdCdGdGTmGmCdCmUdCdCmGmUmCmAmCmGmCmC-3T (mGmGmCmGmUdGdCdAmGmUmGmCmCmUmUmCmGmGmCdCmGdTmGdCdGdGdTmGmCdCmUdCdCmGmUmCmAmCmGmCmC[invdT]; aptamer) [ARC1342] | 33 | 15.6 |  |  |  |
| AMX201.D3: rRfY aptamer clone (nucleic acid) rGrGrArGfCrGfCrAfCfUfCrArGfCfCrAfCrGfCfCfCrAfCrGfUfCrArArAfUfUrAfUrArGfUfCfUrAfCfUfUfUrGrAfUrGfUrGfCfCfCrGfUrGrGfUfUfUfCrGrAfCfCfUfCfUfCfUrGfCfUrArGfC |  |  | 1.52 | 1.76 |  |
| AMX201.D4: rRfY aptamer clone (nucleic acid) rGrGrArGfCrGfCrAfCfUfCrArGfCfCrAfCfUrGrGrGrGfCfUrGrAfUfCfUfCrGfCrAfCrGrAfUrArGfUfUfCrGfUrGfUfCrArArGrGrAfUrGfCrGfUfUfUfUfCrGrAfCfCfUfCfUfCfUrGfCfUrArGfC |  |  | 2.46 | 2.23 |  |
| AMX201.B3: rRfY aptamer clone (nucleic acid) rGrGrArGfCrGfCrAfCfUfCrArGfCfCrAfCrArGrArGfCfCfCfUrGrArGfUrGfUrAfUrGrAfUfCrGfCfCrGrArGrAfUfCfUrAfUfCrGrAfUrGfCfUfUfUfUfUfCrGrAfCfCfUfCfUfCfUrGfCfUrArGfC |  |  | 1.64 | 1.69 |  |
| AMX205.A7: rRdY aptamer clone (nucleic acid) rGrGrArGdCrGdCrAdCdTdCrArGdCdCrAdCdTdCrArArGrGrGrGrGdTdCrGdCrGdTrGrGrGrGrAdCrGrArArGrGrGdTdTrGdCrArGdTrGdTrGdTdCrGdTdTdTdCrGrAdCdCdTdCdTdCdTrGdCdTrArGdC |  |  |  |  | Screen- Rabbit/No Protein ([2]; rRdY aptamers): 1.37; Screen- Human/No Protein ([3]; rRdY aptamers, ratio of fraction bound with target to without): 1.24 |
| AMX201.H4: rRfY aptamer clone (nucleic acid) rGrGrArGfCrGfCrAfCfUfCrArGfCfCrAfCfUrArAfCrGrGfUfUrGrAfUfCfUfCrArGrGrAfCfUrArAfUrArGfUfCrArAfCrArArGrGrAfUrGfCrGfUfUfUfCrGrAfCfCfUfCfUfCfUrGfCfUrArGfC |  |  | 1.86 | 1.79 |  |
| AMX201.B11: rRfY aptamer clone (nucleic acid) rGrGrArGfCrGfCrAfCfUfCrArGfCfCrAfCrAfCfCrGrArGrGfCfUrGrGrAfUrAfUfCfUrAfCrGrArGrArGrGrArArGfUrGfCfUrGfCfUfUrGrArAfUfUfUfCrGrAfCfCfUfCfUfCfUrGfCfUrArGfC |  |  | 1.52 | 1.55 |  |
| AMX201.H11: rRfY aptamer clone (nucleic acid) rGrGrArGfCrGfCrAfCfUfCrArGfCfCrAfCfCfCfUrGfUfCrGfUfCfUfUfUfUrGrGfUrArGfUfCrArGfCfCrArArArArGfCfUrArGfUfUrGrGfUfUrGfUfUfUfCrGrAfCfCfUfCfUfCfUrGfCfUrArGfC |  |  | 1.40 | 1.75 |  |
| AMX201.A8: rRfY aptamer clone (nucleic acid) rGrGrArGfCrGfCrAfCfUfCrArGfCfCrAfCrGfCfUrGfUrAfCrAfCfUrGrAfUrGfUfUrGfUrArAfCrAfUrGfUrAfCfCfCfCfCfUrGrGfCfUrGfUfUfUfCrGrAfCfCfUfCfUfCfUrGfCfUrArGfC |  |  | 1.51 | 1.82 |  |
| AMX201.D10: rRfY aptamer clone (nucleic acid) rGrGrArGfCrGfCrAfCfUfCrArGfCfCrAfCrAfCfUrGrArGrGfCfUrGrGrAfUrAfUfCfUrAfCrGrArGrArGrGrArArGfUrGfCfUrGfCfUfUrGrGrAfUfUfUfCrGrAfCfCfUfCfUfCfUrGfCfUrArGfC |  |  | 1.52 | 1.59 |  |
